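Five compound concentrations were applied to cells in 96-well plates for 48 hours; endpoints were derived by simple linear interpolation of the resulting dose-response curve. Definition used: TGI = concentration required for complete inhibition of growth.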
Assays:
Assay in all cases: NCI-60 cell line screen, 48 h
[1] = test system: SK-MEL-28 melanoma
[2] = test system: SNB-19 CNS
[3] = test system: EKVX NSCLC
[4] = test system: OVCAR-5 ovarian
[5] = test system: OVCAR-3 ovarian
[6] = test system: T-47D breast
[7] = test system: RPMI-8226 leukemia
[8] = test system: UACC-257 melanoma
[9] = test system: 786-0 renal
[10] = test system: U251 CNS
[11] = test system: K-562 leukemia
[12] = test system: NCI-H522 lung
[13] = test system: SF-539 CNS
[14] = test system: MDA-N
[15] = test system: HOP-92 NSCLC
[16] = test system: SF-268 CNS
[17] = test system: HS 578T breast
[18] = test system: OVCAR-8 ovarian
[19] = test system: MOLT-4 leukemia
[20] = test system: NCI/ADR-RES ovarian
[21] = test system: SR leukemia
[22] = test system: DU-145 prostate
[23] = test system: LOX IMVI melanoma
[24] = test system: MCF7 breast
[25] = test system: HOP-62 NSCLC
[26] = test system: RXF 393 renal
[27] = test system: HL-60(TB) leukemia
[28] = test system: SK-MEL-5 melanoma
[29] = test system: HCT-116 colon
[30] = test system: TK-10 renal
[31] = test system: HCC-2998 colon
[32] = test system: CCRF-CEM leukemia
[33] = test system: MDA-MB-435
[34] = test system: SK-OV-3 ovarian
[35] = test system: NCI-H23 lung
[36] = test system: COLO 205 colon
[37] = test system: IGROV1 ovarian
[38] = test system: KM12 colon
[39] = test system: BT-549 breast
[40] = test system: SNB-75 CNS
[41] = test system: MDA-MB-231 breast
[42] = test system: SF-295 CNS
[43] = test system: M14 melanoma
[44] = test system: HT29 colon
[45] = test system: SN12C renal
[46] = test system: SK-MEL-2 melanoma
[47] = test system: PC-3 prostate
[48] = test system: OVCAR-4 ovarian
[49] = test system: UO-31 renal
[50] = test system: ACHN renal
[51] = test system: A549 NSCLC
[52] = test system: CAKI-1 renal
[53] = test system: A498 renal
[54] = test system: HCT-15 colon
[55] = test system: NCI-H226 lung
[56] = test system: UACC-62 melanoma
[57] = test system: SW-620 colon
[58] = test system: NCI-H460 lung
[59] = test system: MALME-3M melanoma

OCCN(CCO)CCn1cnc2c(NCc3ccccc3)ncnc21
TGI [1]: > 100 µM | TGI [2]: > 100 µM | TGI [3]: > 100 µM | TGI [4]: > 100 µM | TGI [5]: > 100 µM | TGI [6]: > 100 µM | TGI [7]: > 100 µM | TGI [8]: > 100 µM | TGI [9]: > 100 µM | TGI [10]: > 100 µM | TGI [11]: > 100 µM | TGI [12]: > 100 µM | TGI [13]: > 100 µM | TGI [14]: > 100 µM | TGI [15]: > 100 µM | TGI [16]: > 100 µM | TGI [17]: > 100 µM | TGI [18]: > 100 µM | TGI [19]: > 100 µM | TGI [20]: > 100 µM | TGI [21]: > 100 µM | TGI [22]: > 100 µM | TGI [23]: > 100 µM | TGI [24]: > 100 µM | TGI [25]: > 100 µM | TGI [26]: > 100 µM | TGI [27]: > 100 µM | TGI [28]: > 100 µM | TGI [29]: > 100 µM | TGI [30]: > 100 µM | TGI [31]: > 100 µM | TGI [32]: > 100 µM | TGI [33]: > 100 µM | TGI [34]: > 100 µM | TGI [35]: > 100 µM | TGI [36]: > 100 µM | TGI [37]: > 100 µM | TGI [38]: > 100 µM | TGI [39]: > 100 µM | TGI [40]: > 100 µM | TGI [41]: > 100 µM | TGI [42]: > 100 µM | TGI [43]: > 100 µM | TGI [44]: > 100 µM | TGI [45]: > 100 µM | TGI [46]: > 100 µM | TGI [47]: > 100 µM | TGI [48]: > 100 µM | TGI [49]: > 100 µM | TGI [50]: > 100 µM | TGI [51]: > 100 µM | TGI [52]: > 100 µM | TGI [53]: > 100 µM | TGI [54]: > 100 µM | TGI [55]: > 100 µM | TGI [56]: > 100 µM | TGI [57]: > 100 µM | TGI [58]: > 100 µM | TGI [59]: > 100 µM

Nc1nc(N)c(-c2cccc(C(F)(F)F)c2)c(Cc2cccc(C(F)(F)F)c2)n1
TGI [1]: 24.8 µM | TGI [2]: 19.2 µM | TGI [3]: 21.1 µM | TGI [4]: 18.8 µM | TGI [5]: 22.1 µM | TGI [6]: 32.4 µM | TGI [7]: 21.6 µM | TGI [8]: 20.2 µM | TGI [9]: 15.3 µM | TGI [10]: 29.6 µM | TGI [11]: 17.7 µM | TGI [12]: 15.4 µM | TGI [13]: 16.6 µM | TGI [14]: 17.9 µM | TGI [15]: 25.8 µM | TGI [16]: 20 µM | TGI [17]: 35 µM | TGI [18]: 24.6 µM | TGI [19]: 17.7 µM | TGI [20]: 23.1 µM | TGI [21]: 17.5 µM | TGI [22]: 21.5 µM | TGI [23]: 17.9 µM | TGI [24]: 18.5 µM | TGI [25]: 30.1 µM | TGI [26]: 22.5 µM | TGI [27]: 17.7 µM | TGI [28]: 17.6 µM | TGI [29]: 12.2 µM | TGI [30]: 20.9 µM | TGI [31]: 11.3 µM | TGI [32]: 44.3 µM | TGI [33]: 22.5 µM | TGI [34]: 28.1 µM | TGI [35]: 13 µM | TGI [36]: 19.6 µM | TGI [37]: 19.3 µM | TGI [38]: 21.7 µM | TGI [39]: 22.4 µM | TGI [40]: 29 µM | TGI [41]: 26.2 µM | TGI [42]: 22.7 µM | TGI [43]: 17.4 µM | TGI [44]: 10.9 µM | TGI [45]: 15.3 µM | TGI [46]: 20.7 µM | TGI [47]: 24.1 µM | TGI [48]: 31 µM | TGI [49]: 19.4 µM | TGI [50]: 13.5 µM | TGI [51]: 13.3 µM | TGI [52]: 21.9 µM | TGI [53]: 15.9 µM | TGI [54]: 16.5 µM | TGI [55]: 30.1 µM | TGI [56]: 14.8 µM | TGI [57]: 26.7 µM | TGI [58]: 13.5 µM | TGI [59]: 25.7 µM
